Test system: 2nd instar larva of Spodoptera frugiperda
Assay: Laboratory test of larval mortality on maize leaves
Format: in vivo

With CNC(=O)c1cc(Cl)cc(C)c1NC(=O)c1cc(Br)nn1-c1ncccc1Cl [Compound 2, 3-bromo-N-[4-chloro-2-methyl-6-[(methylamino)carbonyl]phenyl]-1-(3-chloro-2-pyridinyl)-1H-pyrazole-5-carboxamide] the “concentration in leaf tissue needed to achieve 100% mortality within 72 h” value was 0.037 micrograms per g of tissue and the “concentration in leaf tissue resulting in 50% mortality within 72 h” value was 0.033 micrograms per g of leaf tissu.

From patent US9204644B2, “Nanoparticles compositions containing polymers and anthranilic acid diamide insecticides for propagule coating” (priority 2011, dated 2015)
